According to patent publication US20250248957A1, “CELL DIFFERENTIATION” (JOHN HEMMING TRADING LTD, priority 2022, published 2025):

Assays:
Type in all cases: in vivo, human
C reactive protein (CRP) = assay: CRP level in the blood of the subject
Method: (§1) Citrate was administered to the subject in the morning as magnesium and potassium citrate, at lunch time as 10 ml of lemon juice and as calcium and sodium citrate with a total daily citrate dose of 3.95 g. The antioxidant melatonin was administered at night to provide a total nightly dose of between 10 mg and 470 mg.
CRP levels were reduced from 0.5 mg/L to <0.3 mg/L (0.3 mg/L represents the lower limit of detection) following two months of citrate administration. A subsequent measurement of CRP using equipment with higher sensitivity identified a CRP level of below 0.16 mg/L. The Inventor believes that reduced CRP levels result from increased differentiation of senescent stem cells and reduced production of senescent cells via cell dedifferentiation.

[1] = system: muscle stem cells (satellite cells); assay: Muscle mass of the subject after citrate administration; settings: total daily citrate dose 3.95 g
Method: as §1

hair follicle stem cells = assay: Hair growth on the scalp of a subject after citrate administration
Method: as §1, with “Citrate was administered to a subject in the morning as magnesium and potassium citrate and at lunch time as 10 ml of lemon juice to provide a total daily citrate dose of 1.85 g. The antioxidant melatonin was administered at night to provide a total nightly dose of between 10 mg and 470 mg. Citrate was administered daily for four weeks. Citrate” for “Citrate”

[2] = Kidney function markers (Cystatin C, creatinine)
Excerpt: The subject's creatinine levels reached as low as […].

precancerous spot = assay: Appearance of a precancerous spot on the skin; settings: about 3 g citrate daily for about 3 months; FIG. 7
[3] = Blood glucose over 24 hour periods by continuous glucose monitor (CGM); settings: 2-40 g citrate daily, 10 months; two non-consecutive days; FIGS. 5(d),(e)
Method: (§2) Citrate was administered to the subject with a total daily citrate dose of between 2 and 40 g for a period of 10 months. Blood glucose levels were measured over separate 24 hour periods using a continuous glucose monitor (CGM) purchased from Dexcom.

[4] = Facial skin quality (number of blemishes); settings: 2-40 g citrate daily for 6 weeks; before: 25; FIG. 6
Excerpt: Administration of citrate was also found to improve facial skin quality following administration of between 2 and 40 g of citrate daily for a period of 6 weeks.

[5] = Concentration of key biomarkers in the blood (HbA1c, folate, glucose)
Method: as §2
The Inventor also measured haemoglobin A1C (HbA1c) which can be used as a diagnostic marker for diabetes. An HbA1c concentration of >6.4% is indicative of diabetes, and a concentration of 5.7% to 6.4% is indicative of prediabetes.

Compound: O=C(O)CC(O)(CC(=O)O)C(=O)O [citrate]
- CRP level in blood (C reactive protein (CRP); after two months of citrate, baseline 0.5 mg/L, lower limit of detection 0.3 mg/L): < 0.3 mg/L
- CRP level, subsequent measurement with higher sensitivity equipment (C reactive protein (CRP); subsequent measurement): below 0.16 mg/L
- muscle mass [1]: An increase in muscle mass
- hair growth with added red or infrared radiation (hair follicle stem cells; topical red or infrared radiation 600-900 nm in addition to citrate): further improved hair growth
- growth of new hairs in areas of the scalp which had suffered hair loss (hair follicle stem cells; total daily citrate dose 1.85 g for four weeks, melatonin at night, FIG. 1): growth of new hairs was observed
- growth of thicker and darker hairs (hair follicle stem cells; total daily citrate dose 3.95 g, melatonin at night, compared to Example 1, FIGS. 2-4): growth of hairs which were thicker and darker
- creatinine level, lowest reached ([2]; 2-40 g citrate daily, 10 months): 62 mmol/L
- Cystatin C level ([2]; following 3 months of citrate, 2-40 g daily, baseline 0.98 mg/L): 0.89 mg/L
- appearance of a precancerous spot on the skin (precancerous spot): reduce the appearance of a precancerous spot
- blood glucose peaks over 24 hour period (CGM) [3]: no significant glucose peaks occurred
- number of facial blemishes [4]: 20
- HbA1c level maintained ([5]; 2-40 g citrate daily): less than 5.7%
- HbA1c level, lowest reached ([5]; 2-40 g citrate daily): 4.18%
- Glucose concentration in the blood ([5]; following 6 months of citrate administration, reference range 3.3-5.6): 4.53 mmol/L
- HbA1C in the blood ([5]; following 6 months of citrate administration, reference range 4-6): 4.18%
